{"source": "patent US20230384322A1", "about": "“COMPLEMENTOME ASSAY” (Complement Therapeutics Limited, priority 2020, published 2023)", "key": {"[1]": {"test_system": "U87 GBM cells", "experiment": "Real-time RT-PCR of CFH/FHL-1/IDO expression in cultured U87 GBM cells", "assay_type": "cell-based, human", "method": "(§1) FIGS. 13A to 13E. Indoleamine 2,3 dioxygenase 1 (IDO) non-metabolically increases complement factor H (CFH) levels in human glioblastoma (GBM). (13A) Flow chart for the microarray experimental design, data analysis, as well as validation of results. Real-time RT-PCR confirmation of IDO regulatory effects on CFH expression in cultured (13B) U87 or (13C) PDX43 GBM. Cells were exposed to a variety of conditions including transfection with IDO specific siRNA (20 nM) or scrambled control siRNA for 16 hours, treatment with or without 100 ng/mL human interferon-gamma (IFN-γ), treatment with or without the IDO enzyme inhibitor, BGB-5777 (1 uM), or IFNγ plus BGB-5777 for 24 hours. Quantitative RT-PCR was performed (n=3 reflecting one representative experiment from 4 experimental repeats). (13D) Quantitative RT-PCR analysis of IDO and CFH mRNA expression on IFNγ-stimulated U87 cells treated with CFH siRNA or scrambled control siRNA. Same experimental conditions as in [13B] (n=3/group reflecting one representative experiment from 3 experimental repeats). (13E) mRNA expression levels for human IDO, CFH, and CD3 were quantified and compared among intracranial PDX43 and patient-resected newly-diagnosed or recurrent intracranial human GBM (n=4-9/group). Intracranially-engrafted (ic.) PDX43 was isolated from humanized mice with or without treatment of CD4′ and CD8^+ T cell depleting antibodies between 14-21 days post-intracranial injection. ***, P<0.001; ND: not detectable, ns: not significant. All bar graphs represent mean±SEM.\nFIGS. 15A to 15H. Indoleamine 2,3 dioxygenase 1 (IDO) enhances the expression of both complement factor H (CFH) isoforms in human glioblastoma (GBM). (15A) Schematic representation of CFH transcript variants reflecting the full-length (CFH) and truncated (FHL-1) sequences. Pearson's correlation analysis of (15B) IDO and (15C) CD3E with CFH and FHL-1 using the TCGA GBM RNA-Seq dataset. (15D) Left panel: Western blot analysis of surgically-resected tumor tissue samples from both newly diagnosed GBM patients and recurrent GBM patients. Right panel: Protein expression of full-length and truncated CFH variants and IDO in IFNγ-stimulated U87 cells. Cells were treated with IFNγ and cultured in serum-free medium for 24 to 48 hours. Both cell lysates and cell culture supernatants were collected. The supernatants were concentrated with ultrafiltration and analyzed by Western blot along with cell lysate samples. One representative result is shown that reflects 4 experimental repeats. (15E) Time course analysis of IDO, CFH, FHL-1 mRNA expression after treatment with IFNγ in U87 (top row) and PDX43 (bottom row) GBM cells. The U87 cells were stimulated with 100 ng/ml human IFNγ and RNA lysates were extracted followed by quantitative RT-PCR analysis (n=4). (15F) Western blot of cell lysates and supernatants collected from the same experimental design as in top panel. Data from one representative experiment from 2 experiments are shown. (15G) Top panel: Western blot showing IDO protein levels in unmodified (Unmod.) as well as in CRISPR-Cas9 IDO-deleted (IDOKO) U87 cells. Unmod. U87 cells and IDOKO U87 cells were stimulated with 100 ng/mL human IFNγ for 24 hours. Protein lysates were collected from both untreated and IFNγ treated cells followed by Western blotting analysis; Lower panel: HPLC measurement of kynurenine (Kyn) and tryptophan (Trp) in Unmod. U87 and IDOKO U87 cells. (15H) Comparison of IDO, CFH, and FHL-1 mRNA expression induction in Unmod. and IDOKO U87 cells using quantified RT-PCR (n=3 per group that reflects 1 representative experiment after 2 repeats). ***, P<0.001; ND: not detectable. All bar graphs represent mean±SEM.\nThe microarray analysis was carried out at the Northwestern University NUSeq Core Facility using the human transcriptome analysis system, Clariom™ D Assay (Thermo Fisher Scientific). Briefly, 1×10^5 cells per well of U87 cells or IDO-OE U87 cells were seeded on 12-well plate. […]"}, "[2]": {"test_system": "U87, PDX12, PDX39, and PDX43", "experiment": "In vitro expression analysis of human CFH mRNA in different GBM cells with or without human IFNγ", "assay_type": "cell-based", "description": "FIGS. 14A to 14I. Indoleamine 2,3 dioxygenase 1 (IDO) and complement factor H (CFH) mRNA levels positively correlate with T cell infiltration in patient-resected glioblastoma (GBM). (14A) mRNA expression levels for IDO and CFH in grade II (green; n=226), grade III (blue; n=249), and grade IV (GBM; red; n=172) glioma of the RNA Hi-Seq. Illumina dataset as analyzed in the cancer genome atlas (TCGA). Horizontal lines in the scatter plots represents mean±SEM. (14B) Pearson's correlation analysis for IDO and CFH mRNA levels within GBM and all-grade glioma. […] CFH mRNA levels were analyzed in U87 GBM cells co-cultured with either naïve or activated T cells or conditioned medium from activated T cells in the presence or absence of IFNγ-neutralizing antibodies. […]\nTotal RNA was extracted from freshly dissected tissue samples and cultured cells using the Trizol Reagent and PureLink RNA Mini Kit (Thermo Fisher Scientific), respectively. […] Quantitative real-time PCR was performed on a CFX96 Touch Real-Time PCR Detection System using the default program setting (Bio-Rad). […] The relative quantitation of gene expression was calculated using the 2-AACT method (29) with normalization of the target threshold cycle (CT) values to the internal housekeeping gene (GAPDH)."}, "[3]": {"test_system": "U87 cells", "experiment": "Western blotting of CFH, FHL-1 and IDO in U87 cell lysates and supernatants", "assay_type": "cell-based, human", "conditions": "serum-free medium 24 to 48 hours", "description": "FIGS. 15A to 15H. Indoleamine 2,3 dioxygenase 1 (IDO) enhances the expression of both complement factor H (CFH) isoforms in human glioblastoma (GBM). (15A) Schematic representation of CFH transcript variants reflecting the full-length (CFH) and truncated (FHL-1) sequences. Pearson's correlation analysis of (15B) IDO and (15C) CD3E with CFH and FHL-1 using the TCGA GBM RNA-Seq dataset. (15D) Left panel: Western blot analysis of surgically-resected tumor tissue samples from both newly diagnosed GBM patients and recurrent GBM patients. Right panel: Protein expression of full-length and truncated CFH variants and IDO in IFNγ-stimulated U87 cells. Cells were treated with IFNγ and cultured in serum-free medium for 24 to 48 hours. Both cell lysates and cell culture supernatants were collected. The supernatants were concentrated with ultrafiltration and analyzed by Western blot along with cell lysate samples. One representative result is shown that reflects 4 experimental repeats. […] The U87 cells were stimulated with 100 ng/ml human IFNγ and RNA lysates were extracted followed by quantitative RT-PCR analysis (n=4). […] (15H) Comparison of IDO, CFH, and FHL-1 mRNA expression induction in Unmod. and IDOKO U87 cells using quantified RT-PCR (n=3 per group that reflects 1 representative experiment after 2 repeats). ***, P<0.001; ND: not detectable. […]"}, "[4]": {"test_system": "PDX43 GBM cells", "experiment": "Real-time RT-PCR of CFH/FHL-1/IDO expression in cultured PDX43 GBM cells", "assay_type": "cell-based, human", "conditions": "IFNγ time course", "method": "as §1, with “Same experimental conditions as in [13B] (n=3/group reflecting one representative experiment from 3 experimental repeats).” left out, “Intracranially-engrafted (ic.) PDX43 was isolated from humanized mice with or without treatment of CD4′ and CD8^+ T cell depleting antibodies between 14-21 days post-intracranial injection. ***, P<0.001; ND: not detectable, ns: not significant. All bar graphs represent mean±SEM.” left out\nFIGS. 15A to 15H. […] The supernatants were concentrated with ultrafiltration and analyzed by Western blot along with cell lysate samples. […] The U87 cells were stimulated with 100 ng/ml human IFNγ and RNA lysates were extracted followed by quantitative RT-PCR analysis (n=4). […]"}, "[5]": {"target": "C3b"}}}
{"molecule": "IDO-specific siRNA: human IDO-specific siRNA duplex (GE Health Dharmacon), SEQ ID NO:174 and 175 (chain 1 GCUUAUGACGCCUGUGUGAUU; chain 2 UCACACAGGCGUCAUAAGCUU; listed as RNA, chemistry not given here; listed as Homo sapiens)", "values": [{"measurement": "Effect on CFH expression (quantitative RT-PCR)", "setting": "[1]; U87 cells, siRNA 20 nM, 16 hours", "result": "decreased expression of CFH"}]}
{"molecule": "IFNγ: human recombinant interferon-gamma (Shenandoah Biotechnology), T cell effector cytokine", "values": [{"measurement": "Effect on CFH mRNA expression in human GBM cells", "setting": "[2]", "result": "increased CFH expression"}, {"measurement": "Earliest time IDO mRNA expression is detectable after treatment", "setting": "[1]; 100 ng/ml human IFNγ time course", "result": 4, "unit": "h"}, {"measurement": "IDO, CFH and FHL-1 mRNA expression induction", "setting": "[1]; CRISPR-Cas9 IDO-deleted (IDOKO) U87 cells", "result": "no such increase"}, {"measurement": "Effect on CFH expression (quantitative RT-PCR)", "setting": "[1]; U87 cells, 100 ng/mL, 24 hours", "result": "increase of CFH expression"}, {"measurement": "Earliest time full-length and truncated CFH variants increased after treatment", "setting": "[1]; U87 cells, 100 ng/ml human IFNγ time course", "result": 12, "unit": "h"}, {"measurement": "IDO, CFH and FHL-1 mRNA expression induction", "setting": "[1]; unmodified U87 cells, 100 ng/mL", "result": "induced and upregulated"}, {"measurement": "CFH and FHL-1 protein expression in cell culture supernatants (Western blot)", "setting": "[3]", "result": "higher"}, {"measurement": "Earliest time full-length and truncated CFH variants increased after treatment", "setting": "[4]", "result": 12, "unit": "h"}]}
{"molecule": "Complement Factor I (FI) (protein) KVTYTSQEDLVEKKCLAKKYTHLSCDKVFCQPWQRCIEGTCVCKLPYQCPKNGTAVCATNRRSFPTYCQQKSLECLHPGTKFLNNGTCTAEGKFSVSLKHGNTDSEGIVEVKLVDQDKTMFICKSSWSMREANVACLDLGFQQGADTQRRFKLSDLSINSTECLHVHCRGLETSLAECTFTKRRTMGYQDFADVVCYTQKADSPMDDFFQCVNGKYISQMKACDGINDCGDQSDELCCKACQGKGFHCKSGVCIPSQYQCNGEVDCITGEDEVGCAGFASVTQEETEILTADMDAERRRIKSLLPKLSCGVKNRMHIRRKRIVGGKRAQLGDLPWQVAIKDASGITCGGIYIGGCWILTAAHCLRASKTHRYQIWTTVVDWIHPDLKRIVIEYVDRIIFHENYNAGTYQNDIALIEMKKDGNKKDCELPRSIPACVPWSPYLFQPNDTCIVSGWGREKDNERVFSLQWGEVKLISNCSKFYGNRFYEKEMECAGTYDGSIDACKGDSGGPLVCMDANNVTYVWGVVSWGENCGKPEFPGVYTKVANYFDWISYHVGRPFISQYNV", "values": [{"measurement": "C3b breakdown in vitro (C3b incubated with FI and a fragment of cofactor CR1; time course followed by gel electrophoresis and GluC/SRM-MS)", "setting": "[5]", "result": "the formation of C3b fragments iC3b, C3f and C3c, and loss of intact C3b can be clearly detected over time"}]}
